{"source": "patent US9988430B2", "about": "“Stable GLP-1 based GLP-1/glucagon receptor co-agonists” (Novo Nordisk A/S, priority 2014, dated 2018)", "key": {"human GLP-1 receptor": {"target": "T1, human GLP-1 receptor (Homo sapiens, UniProt P43220)", "T1 construct": "expressed in transfected cells; host or cells: membranes of BHK cells, parent line BHKTS13, clone FCW467-12A", "T1 sequence (P43220 24-463)": "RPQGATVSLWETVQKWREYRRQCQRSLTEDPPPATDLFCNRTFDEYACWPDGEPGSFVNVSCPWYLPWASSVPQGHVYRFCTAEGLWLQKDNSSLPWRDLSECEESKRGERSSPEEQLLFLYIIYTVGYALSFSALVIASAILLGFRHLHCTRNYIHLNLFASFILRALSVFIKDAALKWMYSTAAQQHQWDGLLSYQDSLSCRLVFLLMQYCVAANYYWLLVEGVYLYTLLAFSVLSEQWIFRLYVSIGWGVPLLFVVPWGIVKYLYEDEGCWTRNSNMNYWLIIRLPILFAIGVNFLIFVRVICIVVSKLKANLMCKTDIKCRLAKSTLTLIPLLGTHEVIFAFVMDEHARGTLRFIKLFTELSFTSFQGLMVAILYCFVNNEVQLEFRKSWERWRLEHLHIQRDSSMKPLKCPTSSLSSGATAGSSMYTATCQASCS", "test": "Assay (I)(a): GLP-1 receptor potency, CRE luciferase reporter gene assay in BHK cells", "assay_type": "cell-based", "settings": "BHK cells expressing human GLP-1 receptor, read-out: EC50 GLP-1R", "method_in_brief": "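BHK cells (clone FCW467-12A/KZ10-1), 5×10EE3/well, exposed 3 h at 37° C to compound at 1×10EE-13 to 1×10EE-6 M final in medium with 2% ovalbumin and 0.2% Pluronic F-68. Luciferase luminescence read; EC50 (pM) from four-parameter fit.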"}, "human glucagon receptor": {"target": "T2, human glucagon receptor (Homo sapiens, UniProt P47871)", "T2 construct": "expressed in transfected cells; host or cells: membranes of BHK cells, clone BHK hGCGR A3*25", "T2 sequence (P47871 26-477)": "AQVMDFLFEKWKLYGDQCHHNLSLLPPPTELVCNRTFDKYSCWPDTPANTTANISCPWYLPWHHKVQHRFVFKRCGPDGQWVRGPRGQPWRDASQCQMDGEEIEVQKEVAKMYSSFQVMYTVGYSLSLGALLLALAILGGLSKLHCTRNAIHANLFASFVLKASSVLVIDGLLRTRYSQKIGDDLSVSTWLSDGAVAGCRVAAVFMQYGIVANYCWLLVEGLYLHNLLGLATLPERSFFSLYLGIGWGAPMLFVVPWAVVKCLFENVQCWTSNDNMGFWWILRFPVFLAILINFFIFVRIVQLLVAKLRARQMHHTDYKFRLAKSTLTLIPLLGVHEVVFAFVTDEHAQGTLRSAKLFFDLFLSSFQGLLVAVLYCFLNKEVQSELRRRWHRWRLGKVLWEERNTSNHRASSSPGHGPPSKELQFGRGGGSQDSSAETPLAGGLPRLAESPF", "test": "Assay (II)(b): glucagon receptor binding, [125I]-glucagon displacement, SPA on BHK membranes", "settings": "displacement of [125I]-glucagon, membranes with human glucagon receptor; read-out: IC50 GlucagonR", "method": "Assay (II): GLP-1 and Glucagon Receptor Binding The purpose of this assay is to test the in vitro receptor binding activity of the GLP-1 derivatives of the invention. (b) Glucagon Receptor Binding The glucagon receptor (glucagonR) binding activity is a measure of affinity of a derivative for the human glucagon receptor. The glucagon receptor binding of each derivative were determined with competitive binding, displacing [^125I]-glucagon bound to glucagon receptors expressed in cell membranes associated with wheat germ agglutinin (WGA) scintillation proximity assay (SPA) beads. Each derivative was added in a series of concentrations to isolated membranes comprising the human glucagon receptor and displacement of the labelled ligand was monitored. The receptor binding was reported as the concentration at which half of the labelled ligand is displaced from the receptor, the IC^50 value. The following chemicals were used in the assay: DMEM w Glutamax (Gibco 61965-026), Pen/strep (Invitrogen 15140-122), G418 (Invitrogen 10131-027), Versene (Gibco 15040), 1 M Hepes (Gibco 15630), PBS (Invitrogen 14190-094), fetal calf serum (Invitrogen 16140-071), MgCl2 (Merck 1.05832.1000), EDTA (Invitrogen 15575-038), CaCl2 (Sigma, C5080), Tween 20 (Amresco 0850C335), ovalbumin (Sigma A5503), SPA particles (wheat germ agglutinin (WGA) SPA beads, Perkin Elmer RPNQ0001), [125I]-glucagon (produced in-house), OptiPlate™-96 (Packard 6005290). HME buffer consisted of 25 mM HEPES, 2 mM MgCl2 and 1 mM EDTA, and pH was adjusted to 7.4. Assay buffer consisted of 50 mM HEPES supplemented with 5 mM MgCl2, 1 mM CaCl2, 0.02% Tween 20 and 0.1% Ovalbumin, and pH was adjusted to 7.4. The cells used in this assay (clone BHK hGCGR A3*25) were BHK cells stable transfected with an expression plasmid comprising the cDNA encoding the human glucagon receptor. The cells were grown at 5% CO2 in DMEM, 10% fetal calf serum, 1% Pen/Strep (Penicillin/Streptomycin) and 1.0 mg/ml of the selection marker G418. To make a membrane preparation the cells were grown to approximately 80% confluence. The cells were washed twice in phosphate-buffered saline and harvested. The cells were pelleted using a brief centrifugation and the cell pellet was kept on ice. Lyse the cells by adding approx. 5 ml HME buffer, mix by pipetting and snap freeze in liquid nitrogen. Thaw quickly and add HME buffer to 10 ml. The cell pellet was homogenised with an ULTRA-THURRAX dispersing instrument for 20-30 seconds. The homogenate was centrifuged at 20.000×G, 4° C. for 10 minutes. The pellet was resuspended (homogenised) in 1-2 ml HME buffer. The protein concentration was determined. The membranes were aliquoted and snapfrozen in liquid nitrogen and stored at minus 80° C. • 1. For the receptor binding assay 50 μl of the assay buffer was added to each well of an assay plate. • 2. Test compounds were serially diluted to give the following concentrations: 8×10EE-7 M, 8×10EE-8 M, 8×10EE-9 M, 8×10EE-10 M, 8×10EE-11 M, 8×10EE-12 M and 8×10EE-13 M. Twenty-five μl were added to appropriate wells in the assay plate. • 3. Cell membrane aliquots were thawed and diluted to their working concentration. Fifty μl were added to each well in the assay plate. • 4. WGA SPA beads were suspended in assay buffer at 20 mg/ml. The suspension was diluted to 10 mg/ml in assay buffer just prior to addition to the assay plate. Fifty μl were added to each well in the assay plate. • 5. The incubation was started by adding 25 μl of 480 pM solution of [125I]-glucagon to each well of the assay plate. A 25 μl aliquot was reserved for measuring total counts/well. • 6. The assay plate was incubated for 2 h at 25° C. • 7. The assay plate was centrifuged for 10 min at 1500 rpm. • 8. The assay plate was read in a Perkin Elmer TopCount NXT instrument. Calculations The data from the TopCount instrument were transferred to GraphPad Prism software. The software averaged the values for the replicates and performed a non-linear regression. […]"}}, "note": "*1 amine or outer side, *2 acyl side, *3 side chain or, on linkers, in order; H or OH if unused. Where a SMILES comes first, the peptide text is derived from it. Bridges are numbered along the chain shown (N, C = ends). Roman numbers before positions name the chains, in order. Side-chain parts run from the residue outwards. [ ]: non-standard residue; d: D form. The star is where a group is joined. C18 diacid = O=C(O)CCCCCCCCCCCCCCCCC(=O)*; γGlu = O=C(O)[C@H](CCC(=O)[*:2])N[*:1]; C14 diacid = O=C(O)CCCCCCCCCCCCC(=O)*; Desaminohistidyl = O=C(CCc1c[nH]cn1)*; AEEA = NCCOCCOCC(=O)O; Aib = CC(C)(N)C(=O)O", "data": [{"smiles": "CC[C@H](C)[C@H](NC(=O)[C@H](Cc1ccccc1)NC(=O)[C@H](CCC(=O)O)NC(=O)[C@H](CCCNC(=N)N)NC(=O)[C@H](C)NC(=O)[C@H](C)NC(=O)[C@H](CCC(N)=O)NC(=O)[C@H](CCC(=O)O)NC(=O)[C@H](CCC(=O)O)NC(=O)[C@H](CC(C)C)NC(=O)[C@H](Cc1ccc(O)cc1)NC(=O)[C@H](CCCCN)NC(=O)[C@H](CO)NC(=O)[C@@H](NC(=O)[C@H](CC(=O)O)NC(=O)[C@H](CO)NC(=O)[C@@H](NC(=O)[C@H](Cc1ccccc1)NC(=O)[C@@H](NC(=O)CNC(=O)[C@H](Cc1c[nH]cn1)NC(=O)C(C)(C)NC(=O)CCc1c[nH]cn1)[C@@H](C)O)[C@@H](C)O)C(C)C)C(=O)N[C@@H](C)C(=O)N[C@@H](Cc1c[nH]c2ccccc12)C(=O)N[C@@H](CC(C)C)C(=O)N[C@@H](CC(C)C)C(=O)N[C@@H](CCCCNC(=O)COCCOCCNC(=O)COCCOCCNC(=O)CC[C@H](NC(=O)CC[C@H](NC(=O)CCCCCCCCCCCCC(=O)O)C(=O)O)C(=O)O)C(=O)N[C@H](C(N)=O)[C@@H](C)O", "note": "[Example 38, N^ε34-[2-[2-[2-[[2-[2-[2-[[(4S)-4-carboxy-4-[[(4S)-4-carboxy-4-(13-carboxytridecanoylamino)butanoyl]amino]butanoyl]amino]ethoxy]ethoxy]acetyl]amino]ethoxy]ethoxy]acetyl]-[Imp7,Aib8,His9,Lys18,Glu22,Arg26,Leu33,Thr35]-GLP-1-(7-35)-peptide amide] (Desaminohistidyl-[Aib]HGTFTSDVSKYLEEQAAREFIAWLLK([AEEA-AEEA-γGlu-γGlu-C14 diacid])T-NH2)", "values": [{"measurement": "EC50", "setting": "human GLP-1 receptor", "result": 0.012, "unit": "nM"}, {"measurement": "IC50", "setting": "human glucagon receptor", "result": 3.7, "unit": "nM"}]}, {"smiles": "CC[C@H](C)[C@H](NC(=O)[C@H](Cc1ccccc1)NC(=O)[C@H](CCC(=O)O)NC(=O)[C@H](CCCNC(=N)N)NC(=O)[C@H](C)NC(=O)[C@H](C)NC(=O)[C@H](CCC(N)=O)NC(=O)[C@H](CCC(=O)O)NC(=O)[C@H](CCC(=O)O)NC(=O)[C@H](CC(C)C)NC(=O)[C@H](Cc1ccc(O)cc1)NC(=O)[C@H](CCCCN)NC(=O)[C@H](CO)NC(=O)[C@@H](NC(=O)[C@H](CC(=O)O)NC(=O)[C@H](CO)NC(=O)[C@@H](NC(=O)[C@H](Cc1ccccc1)NC(=O)[C@@H](NC(=O)CNC(=O)[C@H](Cc1c[nH]cn1)NC(=O)C(C)(C)NC(=O)CCc1c[nH]cn1)[C@@H](C)O)[C@@H](C)O)C(C)C)C(=O)N[C@@H](C)C(=O)N[C@@H](Cc1c[nH]c2ccccc12)C(=O)N[C@@H](CC(C)C)C(=O)N[C@@H](CC(C)C)C(=O)N[C@@H](CCCCNC(=O)CNC(=O)[C@H](CO)NC(=O)[C@H](CCC(=O)O)NC(=O)CNC(=O)[C@H](CO)NC(=O)CC[C@H](NC(=O)CC[C@H](NC(=O)CCCCCCCCCCCCCCCCC(=O)O)C(=O)O)C(=O)O)C(=O)N[C@H](C(=O)O)[C@@H](C)O", "note": "[Example 25, N^ε34-[2-[[(2S)-2-[[(2S)-4-carboxy-2-[[2-[[(2S)-2-[[(4S)-4-carboxy-4-[[(4S)-4-carboxy-4-(17-carboxyheptadecanoylamino)butanoyl]amino]butanoyl]amino]-3-hydroxypropanoyl]amino]acetyl]amino]butanoyl]amino]-3-hydroxypropanoyl]amino]acetyl]-[Imp7,Aib8,His9,Lys18,Glu22,Arg26,Leu33,Thr35]-GLP-1-(7-35)-peptide] (I: Desaminohistidyl-[Aib]HGTFTSDVSKYLEEQAAREFIAWLLKT-OH / II: {C18 diacid-γGlu-γGlu}-SGESG; amide I:27-II:C)", "values": [{"measurement": "IC50", "setting": "human glucagon receptor", "result": 18.8, "unit": "nM"}]}]}
